Consider two molecules from publication PMC5427942, “Methionine aminopeptidase 2 is a key regulator of apoptotic like cell death in Leishmania donovani” (Scientific Reports, 2017).

Data set [1] addresses T1, methionine aminopeptidase 2 (LdMAP2) (Leishmania donovani, UniProt A0A3S7WWI2).
T1 construct: gene LdCL_210014600
Description: fluorogenic Met-AMC hydrolysis assay, Lineweaver-Burk plot, single inhibitor concentration ([…]). It counts as biochemical.

Substrate in the data set “purified protein”: CSCC[C@H](N)C(=O)Nc1ccc2c(C)cc(=O)oc2c1
The experiment in a line: purified protein. Conditions: divalent metal ion ([…] NiSO4 in assay).

As to `CO[C@@H]1[C@H](OC(=O)NC(=O)CCl)CC[C@]2(CO2)[C@H]1[C@@]1(C)O[C@@H]1CC=C(C)C` [TNP-470, 5-methoxy-4-(2-methyl-3-(3-methyl-2-butenyl)oxiranyl)-1-oxaspiro(2,5)oct-6-yl (chloroacetyl) carbamate], the Ki (commonly a measure of affinity in units of concentration, obtained from inhibition or displacement) in data set [1] was 13.5 nM.

B1: methionine aminopeptidase 2 (LdMAP2) (Leishmania donovani) (protein)
chain: MPPKMSAKNKQQPKQQGGNKKGKGSSQDGDDFDAMLAAAVNASKADAAKNHSNNHQGKRSSNGNGTAPASRSLAADEPVVPSSADHPENPYPKTADGYPRQTWPEPTVLVSKQFAPGQFPAGEIVDHPGEMNNFRRSSEEKRALARASEQQVQEMREAAEVHRQVRTWAQSWIKPGLSLMLMTDRIEKKLNELIGKDGILRGQAFPTGCSLNHVAAHYTPNTGDEKVVLAYDDVMKVDFGTHINGRIIDCAWTVAFNPMFDPLLQAVKEATYEGIKQAGIDVRLGDIGAAIEEVMESHEVEINGKVHQVKSIRNLSGHNIAPYIIHSGKSVPIVKGGEQTKMEEGEVFAIETFGSTGRGFVNEDLECSHYMMRPGAEVMQLRSEKAQQLLKHIHKSYSTLAFCRKWLDRDGFDRHLMNLNRLVDEGAVNKYPPLVDVKGSYTAQYEHTIYLGPTAKEILSKGSDY
For the molecule B1, the Km (usually the concentration of substrate that gives half-maximal velocity) in “purified protein” came out at 200 µM.
